Data published in US20250345283A1, “MACROPHAGE-DERIVED ENGINEERED VESICLES FOR TARGETED DELIVERY AND TREATMENT” (University of Kentucky Research Foundation, priority 2020, published 2025).
Values belong to the molecule of their own block, whether it stands above or below them.

Legend:
A549 xenograft [1] = assay: In vivo targeting of DiR-labeled cell-derived vesicles, IVIS imaging; design: species or system mouse; conditions: tail vein injection, imaging 24 h postinjection
Protocol: Athymic nude mice were injected with A549 cells (NSCLC, immortalized) in the right shoulder and monitored for 3-4 weeks until measurable xenograft tumors were observed. RAW cells were cultured in vitro by standard methods. Cell-derived vesicles were manufactured by the Richards lab as described above and loaded with DiR near-infrared fluorescent dye. Prepared vesicles were administered, and mice were then imaged approximately 24, 48, and 72 hours later. Mice were anesthetized for imaging using isoflurane. Epifluorescence was measured using an IVIS Spectrum In vivo Imaging System (PerkinElmer). Vesicles were labeled with DiR near-infrared fluorescent dye, which was excited at 710 nm, with emission measured at 780 nm. Fluorescent signal intensity (i.e., total radiant efficiency) within regions of interest (ROI) were quantified using Living Image software (PerkinElmer), correcting for background fluorescence using distal site ROI within the same mouse.
RAW264.7 cells (100 million) were scraped in 40 mL of sucrose buffer solution with protease inhibitor. Vesicles were prepared as described above. The cells were labeled using DiR at 2 μM for 30 min at 37° C. Samples were injected intravenously to the mouse, through the tail vein. Approximately 1×10^11 vesicles were delivered per injection. All animal experiments were repeated three times. […]

A549 xenograft [2] = assay: In vivo delivery of DiR-labeled M1EVs to tumor xenografts, IVIS imaging; design: species or system mouse; conditions: 2×10^10 vesicles, tail vein, imaging 48 and 72 h post injection
Protocol: A549 cells (1×10^6) were injected subcutaneously into the interscapular region of 6-week-old athymic nude mice. The mice were monitored until palpable xenograft tumors developed greater than 200 mm3. M1EVs were generated using 100 million M1 macrophages by the procedure mentioned above. A NanoSight 300 multiple particle tracking system was used to determine the mean diameter and the concentration of MEVs. M1EVs were then labeled with the DiR near-infrared fluorescent dye. Briefly, 1 μL of 1 mM DiR was added to 199 μL of the vesicle resuspension so that the final concentration of DiR in the vesicle resuspension was 5 µM. DiR-labeled vesicles were separated from free DiR using a size exclusion PD MidiTrap column equilibrated with PBS. 100 μL of DiR-labeled M1EVs was then injected into the lateral tail vein of tumor-bearing mice. Isoflurane gas was used to anesthetize mice for imaging 72 h post injection using an IVIS Spectrum In vivo Imaging System (PerkinElmer) controlled with LivingImage software (PerkinElmer). Epifluorescence images were obtained using 710 nm excitation and 760 nm emission filters, f/stop number 4 and binning factor 4, with a 35 s exposure.
The free dye was separated from MEVs using PD Miniprep columns. […] After the tumor xenograft reached at least 100 mm3, 2×10^10 vesicles were injected through the tail vein of each of the three different mice. […]

M2 macrophages = assay: Uptake of M1EVs by M2 macrophages in the presence of dynasore; assay type: cell-based, mouse; conditions: Dynasore 80 μM
Protocol: Dynamin activity is an integral component of both endocytosis and phagocytosis. Dynasore, a dynamin inhibitor, has been widely used to study the process of internalization of exosomes from the surface of the macrophage. […] The uptake of fluorescently labeled M1EVs by M2 BMDMs was compared in the presence and absence of dynasore. Dynasore (80 μM) was added to cultured macrophages 20 min prior to the addition of labeled vesicles. M2 macrophages were left to incubate with M1EVs for 2 h and subsequently imaged by wide-field microscopy. […] The integrated density of the fluorescence signal was calculated to compare the uptake of M1EVs by M2 macrophages. […] Similar vesicle uptake control experiments were performed in the presence of the vehicle, DMSO, at an equal concentration. There was no significant effect of DMSO on the M1EV uptake process by M2 macrophages relative to the control with no DMSO or dynasore. Macrophages are well-established phagocytotic cells.

A549 cells = assay: A549 cell viability (alamar blue) after cisplatin-loaded A549 vesicles or free cisplatin; assay type: cell-based, human; conditions: cisplatin 3 μg
Protocol: A549 cells (60 million) were used to generate vesicles for delivery. Cells were scraped from culture in 20 mL of sucrose buffer containing protease inhibitor. The cell solution was collected in a 50 mL conical tube and pelleted at 2000 rpm at 25° C. for 2 min. The solution was aspirated off, and the pellet was resuspended in 8 mL of 8.33 mM cisplatin in sucrose buffer solution or 20 mg cisplatin/8 mL sucrose buffer solution plus protease inhibitor. The cell solution was fragmented using N2 cavitation at 300 psi at 4° C. for 5 min. The resulting cell slurry was centrifuged at 4000 g for 10 min at 4° C. The supernatant from centrifugation was transferred to a 25 mL ultracentrifuge tube for 10,000 g centrifugation for 20 min at 4° C. The supernatant from the UCF tube was then transferred to a new 25 mL ultracentrifuge tube and centrifuged at 100,000 g for 60 min at 4° C. The pellet in the UCF tube was washed with 500 μL of sucrose solution, and the residual solution was pipetted out and discarded. Seven hundred fifty microliters of sucrose buffer solution was added to the UCF tube, and the pellet was resuspended via pipetting. Empty vesicles were generated in the exact same way except in the absence of cisplatin. A549 cells (30,000) were plated in each well of a 96-well plate and allowed to seed for 24 h. During that time, the growth media was exchanged for 250 μL of fresh HEK media containing either cisplatin in solution (4.17 mM), cisplatin-loaded vesicles, empty vesicles, or untreated media cisplatin solution in HEK media. The media was aspirated off. Two hundred microliters of Optimem was added followed by 20 μL of alamar blue. […] The plate was read using a FlexStation plate reader. […] Cell viability was determined using a fluorescence assay (alamar blue), where the fluorescence intensity scales with the population of live cells. […] Vesicles were then added to A549 cells in culture, and the cell proliferation was compared to cells alone and those in the presence of free cisplatin in solution at the same levels (3 μg) as were measured in the vesicle solution. […]

localisation of DiR fluorescence in tumor-bearing mice (A549 xenograft [1]): nonspecific accumulation
localisation of DiR fluorescence in tumor-bearing mice (A549 xenograft [2]): nonspecific accumulation
SMILES: CCCCCCCCCCCCCCCCCCN1/C(=C/C=C/C=C/C=C/C2=[N+](CCCCCCCCCCCCCCCCCC)c3ccccc3C2(C)C)C(C)(C)c2ccccc21.[I-] [DiR]

SMILES: O=C(N/N=C/c1ccc(O)c(O)c1)c1cc2ccccc2cc1O [Dynasore]
effect on cell viability of macrophages (M2 macrophages): no effect on the cell viability
reduction in uptake of vesicles relative to the control (M2 macrophages; M1EVs with M2 macrophages 2 h): 64%

SMILES: N.N.[Cl][Pt][Cl] [free cisplatin, cisplatin]
A549 cell death (A549 cells; 24 h): no apparent cell death
A549 cell death (A549 cells; 48 h): 15%
A549 cell death (A549 cells; 72 h): 50%
